Laboratory results published in US5604256A, “Octahydronaphthalene oxime derivatives for cholesterol biosynthesis inhibition” (Sankyo Company, Limited, priority 1992, dated 1997).
Structures can show the parent of a compound that is named as a salt.

target: T1, HMG-CoA reductase (Rattus norvegicus, UniProt P51639); experiment: biochemical; details: Table 3
T1 sequence (P51639 1-887): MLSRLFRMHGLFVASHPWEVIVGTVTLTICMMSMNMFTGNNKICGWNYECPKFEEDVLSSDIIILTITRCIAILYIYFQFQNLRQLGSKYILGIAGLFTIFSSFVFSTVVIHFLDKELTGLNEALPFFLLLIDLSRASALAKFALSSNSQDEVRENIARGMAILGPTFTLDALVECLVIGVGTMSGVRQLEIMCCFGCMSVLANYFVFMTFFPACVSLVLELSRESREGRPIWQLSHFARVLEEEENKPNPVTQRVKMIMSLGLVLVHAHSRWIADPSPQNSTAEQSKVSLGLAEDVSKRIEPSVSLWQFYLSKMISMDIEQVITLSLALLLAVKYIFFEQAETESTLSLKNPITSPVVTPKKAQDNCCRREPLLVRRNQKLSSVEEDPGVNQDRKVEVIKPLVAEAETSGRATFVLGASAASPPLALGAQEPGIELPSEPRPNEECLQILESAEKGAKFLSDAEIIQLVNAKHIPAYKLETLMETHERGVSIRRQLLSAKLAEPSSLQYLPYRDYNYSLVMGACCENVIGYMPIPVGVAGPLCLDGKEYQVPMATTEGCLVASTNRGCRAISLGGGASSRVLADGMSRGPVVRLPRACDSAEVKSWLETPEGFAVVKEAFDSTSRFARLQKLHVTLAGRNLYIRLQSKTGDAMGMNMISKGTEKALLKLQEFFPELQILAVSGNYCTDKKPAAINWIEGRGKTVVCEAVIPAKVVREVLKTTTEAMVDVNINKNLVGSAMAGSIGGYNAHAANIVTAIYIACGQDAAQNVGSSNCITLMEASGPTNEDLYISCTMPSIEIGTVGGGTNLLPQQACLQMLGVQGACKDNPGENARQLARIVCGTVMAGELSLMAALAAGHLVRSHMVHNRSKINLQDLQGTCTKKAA
Description: The determination of the inhibitory activity of the compounds was made using the method of Kuroda et al ["Biochimica et Biophysica Acta" Vol. 486, pp. 70-81 (1977)] which is a modification of the known method of D. J. Shapiro et al ["Analytical Biochemistry" Vol. 31, pp. 383-390 (1969)] with some improvements.

SMILES | IC50 [nM]
CCC(C)C(=O)OC1CCC(=NOCc2c(C)noc2C)C2=CC(=O)C(C)C(CCC(=O)CC(O)CC(=O)O)C21 (stereo not drawn) | 16.3
CCC(C)C(=O)OC1CCC(=NOCc2cnoc2)C2=CC(=O)C(C)C(CCC(=O)CC(O)CC(=O)O)C21 (stereo not drawn) | 20.2
CCC(C)C(=O)OC1CCC(=NOCc2ccccc2)C2=CC(=O)C(C)C(CCC(O)CC(O)CC(=O)O)C21 (stereo not drawn) [Na salt of Compound of Preparation 1] | 18.5

More lines, in order of falling IC50, values ahead:

IC50 [nM] | SMILES
22.8 | CCC(C)C(=O)OC1CCC(=NOCc2cnoc2)C2=CC(=O)C(C)C(CCC(O)CC(O)CC(=O)O)C21 (stereo not drawn) [Na salt of Compound of Preparation 9]
17.3 | CCC(C)C(=O)OC1CCC(=NOCc2c(C)noc2C)C2=CC(=O)C(C)C(CCC(O)CC(O)CC(=O)O)C21 (stereo not drawn) [Na salt of Compound of Preparation 11]
16.3 | CCC(C)C(=O)OC1CCC(=NOCc2ccccc2)C2=CC(=O)C(C)C(CCC(=O)CC(O)CC(=O)O)C21 (stereo not drawn)
